Measured values published in patent US9513294B2, “Megastokes amino-triazolyl-BODIPY compounds and applications to live neuron staining and human serum albumin FA1 drug site probing” (National University of Singapore, priority 2012, dated 2016).

What was measured:
[1] = Quantum yield measurements versus Acridine Yellow in EtOH; type: physicochemical; settings: for φ (%): quantum yield; for φ (quantum yield): excitation 460 nm
Procedure, shortened: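 Emission areas integrated over 510–700 nm were compared with Acridine Yellow in ethanol (Φ=0.47), all excited at 460 nm. The comparative equation was normalized to excitation-wavelength absorbance and solvent refractive index.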

[2] = Absorbance and fluorescence emission spectra (SpectraMax M2); type: physicochemical; settings: for λmax Absorp. (nm) / λmax Emission (nm): MKCA compound library; for λmax Absorp. (nm) / λmax Abs. (nm): absorbance maximum; for λmax Emission (nm) / λmax Em. (nm): fluorescence emission maximum; for λmax Abs. (nm) / λmax Em. (nm): MKAC compound library
Procedure, shortened: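 Spectroscopic data, including quantum yields, were recorded with a SpectraMax M2 instrument and analysed in GraphPrism.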

In the case of `CCCCCC(O)c1cn(-c2ccc3n2[B-](F)(F)[N+]2=C(N(C)Cc4ccccc4)C=CC2=C3c2ccc(NC(=O)CCl)cc2)nn1` (stereo not drawn) [MKCA195-69], the “φ (%)” value ([1]; MKCA compound library) is reported as 4.20%, the “λmax Absorp. (nm)” value [2] is reported as 466 nm and the “λmax Emission (nm)” value [2] is reported as 582 nm.

In the case of `CCCCCC(O)c1cn(-c2ccc3n2[B-](F)(F)[N+]2=C(N4CCCCC4)C=CC2=C3c2ccc(NC(C)=O)cc2)nn1` (racemic) [BDCAC-69], the “φ (quantum yield)” value ([1]; BDCAC library, Table 3) is reported as 0.8%, the “λmax Absorp.” value ([2]; BDCAC library, Table 3) is reported as 468 nm and the “λmax Emission” value ([2]; BDCAC library, Table 3) is reported as 587 nm.

With `CCCc1cn(-c2ccc3n2[B-](F)(F)[N+]2=C(NCc4cc(OC)ccc4OC)C=CC2=C3c2ccc(NC(C)=O)cc2)nn1` [MKAC181-48] the “φ (%)” value ([1]; MKAC compound library) was 11.03%, the “λmax Abs. (nm)” value [2] was 465 nm and the “λmax Em. (nm)” value [2] was 561 nm.

With `CC1CN(C2=[N+]3C(=C(c4ccc(N)cc4)c4ccc(-n5cc(CC6CCCCC6)nn5)n4[B-]3(F)F)C=C2)CC(C)O1` (stereo not drawn) [MK20-8] the “φ (quantum yield)” value ([1]; MK library, Table 5) was 0.32%, the “λmax Absorp.” value ([2]; MK library, Table 5) was 476 nm and the “λmax Emission” value ([2]; MK library, Table 5) was 563 nm.

With `CC(=O)Nc1ccc(C2=C3C=CC(N4CCCCC4)=[N+]3[B-](F)(F)n3c2ccc3-n2cc(C3(O)CCCC3)nn2)cc1` [BDCAC-67] the “φ (quantum yield)” value ([1]; BDCAC library, Table 3) was 0.8%, the “λmax Absorp.” value ([2]; BDCAC library, Table 3) was 469 nm and the “λmax Emission” value ([2]; BDCAC library, Table 3) was 592 nm.

With `CC(=O)Nc1ccc(C2=C3C=CC(N4CCCC4)=[N+]3[B-](F)(F)n3c2ccc3-n2cc(C3CC3)nn2)cc1` [MKAC215-4] the “φ (%)” value ([1]; MKAC compound library) was 2.35%, the “λmax Abs. (nm)” value [2] was 462 nm and the “λmax Em. (nm)” value [2] was 576 nm.

With `CC(=O)Nc1ccc(C2=C3C=CC(N4CCCCC4)=[N+]3[B-](F)(F)n3c2ccc3-n2cc(CCc3ccccc3)nn2)cc1` [BDCAC-19] the “φ (quantum yield)” value ([1]; BDCAC library, Table 3) was 0.9%, the “λmax Absorp.” value ([2]; BDCAC library, Table 3) was 467 nm and the “λmax Emission” value ([2]; BDCAC library, Table 3) was 580 nm.

With `CC(=O)Nc1ccc(C2=C3C=CC(N4CCCCC4)=[N+]3[B-](F)(F)n3c2ccc3-n2cc(CC3CCCC3)nn2)cc1` [BDCAC-7] the “φ (quantum yield)” value ([1]; BDCAC library, Table 3) was 1.3%, the “λmax Absorp.” value ([2]; BDCAC library, Table 3) was 467 nm and the “λmax Emission” value ([2]; BDCAC library, Table 3) was 585 nm.

In the case of `COc1cccc(-c2cn(-c3ccc4n3[B-](F)(F)[N+]3=C(N5CCCCC5)C=CC3=C4c3ccc(NC(=O)CCl)cc3)nn2)c1` [BDCCA-27], the “φ (quantum yield)” value ([1]; BDCCA library, Table 4) is reported as 2.3%, the “λmax Absorp.” value ([2]; BDCCA library, Table 4) is reported as 463 nm and the “λmax Emission” value ([2]; BDCCA library, Table 4) is reported as 552 nm.

With `O=C(CCl)Nc1ccc(C2=C3C=CC(NCc4cc(F)cc(F)c4)=[N+]3[B-](F)(F)n3c2ccc3-n2cc(CC3CCCCC3)nn2)cc1` [MKCA412-8] the “φ (%)” value ([1]; MKCA compound library) was 36.92%, the “λmax Absorp. (nm)” value [2] was 467 nm and the “λmax Emission (nm)” value [2] was 564 nm.

With `CCCCCCc1cn(-c2ccc3n2[B-](F)(F)[N+]2=C(N4CCCCC4)C=CC2=C3c2ccc(N)cc2)nn1` [BDC-47] the “φ (quantum yield)” value ([1]; BDC library, Table 2) was 0.16%, the “λmax Absorp.” value ([2]; BDC library, Table 2) was 473 nm and the “λmax Emission” value ([2]; BDC library, Table 2) was 574 nm.

In the case of `CC(C)CCc1cn(-c2ccc3n2[B-](F)(F)[N+]2=C(N4CCCCC4)C=CC2=C3c2ccc(NC(=O)CCl)cc2)nn1` [BDCCA-36], the “φ (quantum yield)” value ([1]; BDCCA library, Table 4) is reported as 0.5%, the “λmax Absorp.” value ([2]; BDCCA library, Table 4) is reported as 467 nm and the “λmax Emission” value ([2]; BDCCA library, Table 4) is reported as 584 nm.

For `CCCC(C)c1cn(-c2ccc3n2[B-](F)(F)[N+]2=C(N4CC(C)OC(C)C4)C=CC2=C3c2ccc(NC(=O)CCl)cc2)nn1` (stereo not drawn) [MKCA20-3], the “φ (%)” value ([1]; MKCA compound library) was 3.15%, the “λmax Absorp. (nm)” value [2] was 467 nm and the “λmax Emission (nm)” value [2] was 581 nm.

In the case of `CCOc1ccccc1CNC1=[N+]2C(=C(c3ccc(NC(C)=O)cc3)c3ccc(-n4cc(CN(C)Cc5ccccc5)nn4)n3[B-]2(F)F)C=C1` [MKAC103-18], the “φ (%)” value ([1]; MKAC compound library) is reported as 18.63%, the “λmax Abs. (nm)” value [2] is reported as 465 nm and the “λmax Em. (nm)” value [2] is reported as 560 nm.

For `CCCCCC(O)c1cn(-c2ccc3n2[B-](F)(F)[N+]2=C(N4CC(C)OC(C)C4)C=CC2=C3c2ccc(NC(C)=O)cc2)nn1` (stereo not drawn) [MKAC20-69], the “φ (%)” value ([1]; MKAC compound library) was 2.23%, the “λmax Abs. (nm)” value [2] was 469 nm and the “λmax Em. (nm)” value [2] was 590 nm.

With `CCCc1cn(-c2ccc3n2[B-](F)(F)[N+]2=C(N4CCCC4)C=CC2=C3c2ccc(NC(C)=O)cc2)nn1` [MKAC215-48] the “φ (%)” value ([1]; MKAC compound library) was 2.70%, the “λmax Abs. (nm)” value [2] was 461 nm and the “λmax Em. (nm)” value [2] was 566 nm.

With `COc1cc(OC)cc(-c2cn(-c3ccc4n3[B-](F)(F)[N+]3=C(N5CCCCC5)C=CC3=C4c3ccc(N)cc3)nn2)c1` [BDC-14] the “φ (quantum yield)” value ([1]; BDC library, Table 2) was 0.18%, the “λmax Absorp.” value ([2]; BDC library, Table 2) was 473 nm and the “λmax Emission” value ([2]; BDC library, Table 2) was 578 nm.

For `O=C(CCl)Nc1ccc(C2=C3C=CC(N4CCCCC4)=[N+]3[B-](F)(F)n3c2ccc3-n2cc(CC3CCCC3)nn2)cc1` [BDCCA-7], the “φ (quantum yield)” value ([1]; BDCCA library, Table 4) was 0.9%, the “λmax Absorp.” value ([2]; BDCCA library, Table 4) was 468 nm and the “λmax Emission” value ([2]; BDCCA library, Table 4) was 590 nm.

For `CCCCc1ccc(-c2cn(-c3ccc4n3[B-](F)(F)[N+]3=C(N5CCCCC5)C=CC3=C4c3ccc(NC(=O)CCl)cc3)nn2)cc1` [BDCCA-12], the “φ (quantum yield)” value ([1]; BDCCA library, Table 4) was 1.6%, the “λmax Absorp.” value ([2]; BDCCA library, Table 4) was 464 nm and the “λmax Emission” value ([2]; BDCCA library, Table 4) was 552 nm.

In the case of `CC(=O)Nc1ccc(C2=C3C=CC(N(C)Cc4ccccc4)=[N+]3[B-](F)(F)n3c2ccc3-n2cc(CCc3ccccc3)nn2)cc1` [MKAC195-19], the “φ (%)” value ([1]; MKAC compound library) is reported as 3.78%, the “λmax Abs. (nm)” value [2] is reported as 467 nm and the “λmax Em. (nm)” value [2] is reported as 577 nm.

In the case of `CC(=O)Nc1ccc(C2=C3C=CC(NCc4ccccc4C)=[N+]3[B-](F)(F)n3c2ccc3-n2cc(CO)nn2)cc1` [MKAC101-70], the “φ (%)” value ([1]; MKAC compound library) is reported as 18.11%, the “λmax Abs. (nm)” value [2] is reported as 465 nm and the “λmax Em. (nm)” value [2] is reported as 561 nm.

For `Nc1ccc(C2=C3C=CC(N4CCCCC4)=[N+]3[B-](F)(F)n3c2ccc3-n2cc(-c3cccc(F)c3)nn2)cc1` [BDC-31], the “φ (quantum yield)” value ([1]; BDC library, Table 2) was 0.11%, the “λmax Absorp.” value ([2]; BDC library, Table 2) was 470 nm and the “λmax Emission” value ([2]; BDC library, Table 2) was 582 nm.

With `COc1ccc2cc(-c3cn(-c4ccc5n4[B-](F)(F)[N+]4=C(N6CCCCC6)C=CC4=C5c4ccc(NC(=O)CCl)cc4)nn3)ccc2c1` [BDCCA-22] the “φ (quantum yield)” value ([1]; BDCCA library, Table 4) was 1.1%, the “λmax Absorp.” value ([2]; BDCCA library, Table 4) was 464 nm and the “λmax Emission” value ([2]; BDCCA library, Table 4) was 586 nm.

In the case of `CCOc1ccccc1CNC1=[N+]2C(=C(c3ccc(NC(=O)CCl)cc3)c3ccc(-n4cc(CC(C)C)nn4)n3[B-]2(F)F)C=C1` [MKCA103-43], the “φ (%)” value ([1]; MKCA compound library) is reported as 33.76%, the “λmax Absorp. (nm)” value [2] is reported as 465 nm and the “λmax Emission (nm)” value [2] is reported as 563 nm.

In the case of `COc1ccc2cc(-c3cn(-c4ccc5n4[B-](F)(F)[N+]4=C(N6CCCCC6)C=CC4=C5c4ccc(N)cc4)nn3)ccc2c1` [BDC-22], the “φ (quantum yield)” value ([1]; BDC library, Table 2) is reported as 0.28%, the “λmax Absorp.” value ([2]; BDC library, Table 2) is reported as 472 nm and the “λmax Emission” value ([2]; BDC library, Table 2) is reported as 579 nm.

With `Nc1ccc(C2=C3C=CC(N4CCCCC4)=[N+]3[B-](F)(F)n3c2ccc3-n2cc(-c3ccc(-c4ccccc4)cc3)nn2)cc1` [BDC-23] the “φ (quantum yield)” value ([1]; BDC library, Table 2) was 0.20%, the “λmax Absorp.” value ([2]; BDC library, Table 2) was 472 nm and the “λmax Emission” value ([2]; BDC library, Table 2) was 570 nm.

For `CCCC(C)c1cn(-c2ccc3n2[B-](F)(F)[N+]2=C(NCc4ccccc4C)C=CC2=C3c2ccc(N)cc2)nn1` (stereo not drawn) [MK101-3], the “φ (quantum yield)” value ([1]; MK library, Table 5) was 1.08%, the “λmax Absorp.” value ([2]; MK library, Table 5) was 475 nm and the “λmax Emission” value ([2]; MK library, Table 5) was 562 nm.

For `COc1cccc(-c2cn(-c3ccc4n3[B-](F)(F)[N+]3=C(N5CCCCC5)C=CC3=C4c3ccc(NC(C)=O)cc3)nn2)c1` [BDCAC-27], the “φ (quantum yield)” value ([1]; BDCAC library, Table 3) was 2.1%, the “λmax Absorp.” value ([2]; BDCAC library, Table 3) was 464 nm and the “λmax Emission” value ([2]; BDCAC library, Table 3) was 555 nm.

In the case of `CCCC(C)c1cn(-c2ccc3n2[B-](F)(F)[N+]2=C(N4CCCC4)C=CC2=C3c2ccc(NC(C)=O)cc2)nn1` (racemic) [MKAC215-3], the “φ (%)” value ([1]; MKAC compound library) is reported as 3.81%, the “λmax Abs. (nm)” value [2] is reported as 461 nm and the “λmax Em. (nm)” value [2] is reported as 569 nm.

With `CCCCCC(O)c1cn(-c2ccc3n2[B-](F)(F)[N+]2=C(NCc4ccccc4OCC)C=CC2=C3c2ccc(NC(C)=O)cc2)nn1` (stereo not drawn) [MKAC103-69] the “φ (%)” value ([1]; MKAC compound library) was 20.91%, the “λmax Abs. (nm)” value [2] was 465 nm and the “λmax Em. (nm)” value [2] was 561 nm.

In the case of `COc1cc(OC)cc(-c2cn(-c3ccc4n3[B-](F)(F)[N+]3=C(N5CCCCC5)C=CC3=C4c3ccc(NC(=O)CCl)cc3)nn2)c1` [BDCCA-14], the “φ (quantum yield)” value ([1]; BDCCA library, Table 4) is reported as 0.8%, the “λmax Absorp.” value ([2]; BDCCA library, Table 4) is reported as 463 nm and the “λmax Emission” value ([2]; BDCCA library, Table 4) is reported as 589 nm.
